Results from patent US11020457B2, “Compositions and methods for protecting the kidney from ischemia reperfusion injury” (University of Virginia Patent Foundation, priority 2013, dated 2021).
“Also recorded” adds a separate entry of the source.

Legend:
C57BL/6 mice = assay: Renal IRI in WT mice: kidney apoptosis (Caspase-3, Bcl-2 real time PCR, TUNEL); assay type: in vivo; details: for TUNEL reactivity in kidney: 26 minutes ischemia, 24 hours reperfusion, FIG. 3e-f; for kidney Caspase-3 expression: hepcidin before IRI, vs IRI p<0.005, vs sham p<0.03, FIG. 3a; for kidney Bcl2 expression: hepcidin-IRI vs untreated IRI, p<0.0008, FIG. 3b
Description: (§1) All experiments were performed in accordance with the National Institutes of Health and Institutional Animal Care and Use Guidelines. The Animal Care and Use Committee of the University of Virginia approved all procedures and protocols. C57BL/6 mice from the Jackson Laboratory and hepcidin knockout mice (HAMP−/−), a kind gift from Dr Cindy Roy (John Hopkins University) were used in this study. All experiments were performed on 8-10 weeks old male mice. Kidney ischemia-reperfusion surgery was performed as previously reported (44). The core temperature of the mice was maintained between 34° C. and 36° C. using a heating pad. After anesthetizing the mice (ketamine, 12 mg/ml; atropine, 0.48 mg/ml; xylazine, 24 mg/ml; […] mixture administered per 20 g body weight), bilateral flank incisions were made, both renal pedicles were exposed, and cross-clamped for 26 minutes (severe I/R injury) or 24 minutes (mild I/R injury). After the determined ischemia, clamps were removed, and kidneys were allowed to reperfuse for 24 hours. Ambient postoperative air temperature was maintained between 30° C. and 32° C. until mice had fully recovered. Sham-operated animals underwent bilateral flank incisions without clamping of renal pedicles. Twenty-four hours later, mice were euthanized, and tissues were harvested.
Animals were divided into three groups, injected intraperitoneally with water and underwent IRI (IRI), injected intraperitoneally with 50-100 μg hepcidin at different time points prior to IRI (Hepcidin-IRI) or were sham operated (Sham). The experimental design is depicted in FIG. 2a.
Apoptotic cells in the kidney were detected by TUNEL assay following the manufacturer's protocol (Roche Diagnostics, Mannheim, Germany). Briefly, PLP-fixed kidney sections were immersed in 3% hydrogen peroxide-methanol (10 minutes) and permeabilized with cold 0.1% Triton-X100 and 0.1% […] (2 minutes). DNA fragments in apoptotic cells were then labeled and identified by terminal transferase dUTP conjugated to fluorescein (Roche Diagnostics) for 60 minutes at room temperature in dark. The apoptotic cells were imaged using a Zeiss Axiovert 200 microscope with Apo Tome (Zeiss).
For RNA isolation, frozen tissues were re-suspended in RLT buffer (Qiagen Inc, Valencia, Calif.) and homogenized using TissueLyser system (Qiagen Inc, Valencia, Calif.). Total RNA from tissue homogenate was purified using RNAeasy mini kit (Qiagen Inc, Valencia, Calif.) following manufacturers instructions. 1 μg of RNA was used to synthesize cDNA using the iScript cDNA synthesis kit (Bio-Rad). The cDNA template was mixed with iTAQ SYBR green universal super mix (Bio-Rad) and quantitative PCR was carried out on CFX Connect system (Bio-Rad). Predesigned primers for Caspase-3 and Bcl-2 were purchased from Bio-rad. Glyceraldehyde-3-phosphate dehydrogenase (GAPDH) was amplified in parallel and used as the reference gene in quantification. Data is expressed as the relative gene expression and was calculated using the 2 (−ρρC(T)) method.

[1] = test system: hepcidin knockout mice (HAMP−/−); assay: Renal IRI in HAMP-/- mice: serum IL-6 by ELISA; assay type: in vivo; details: HAMP-/- IRI Vs HAMP-/- Hepcidin-IRI, p<0.05; FIG. 10b
Description: as §1, with “Twenty-four hours later, mice were euthanized, and tissues were harvested.” left out
Serum iron (Abcam), hepcidin (Intrinsic Lifescience) and IL-6 levels (eBioscience) were measured using commercial ELISA kits, as per manufacturers instructions.

Mouse hepcidin 25 (DTNFPICIFCCKCCNNSQCGICCKT; listed as Mus musculus)
TUNEL reactivity in kidney (C57BL/6 mice): reduced by Hepcidin pretreatment | TUNEL reactivity in kidney (C57BL/6 mice; listed as hepcidin): remarkably fewer TUNEL-positive tubules | kidney Caspase-3 expression (C57BL/6 mice): significantly reduced IRI-induced Caspase-3 expression; also recorded: lower transcriptional activation of pro apoptotic Caspase3 | kidney Caspase-3 expression (C57BL/6 mice; listed as hepcidin): even lower than the sham mice | kidney Bcl2 expression (C57BL/6 mice): better preservation of anti apoptotic Bcl2 | kidney Bcl2 expression (C57BL/6 mice; listed as hepcidin): significantly higher expression of Bcl2 compared to untreated IRI mice | serum IL-6 levels [1]: prevented IRI-induced increase in IL-6 levels; also recorded: significantly reduced serum IL6 compared to untreated
